Reference: patent US9687479B2, “Multisubstituted aromatic compounds as serine protease inhibitors” (VERSEON CORPORATION, priority 2013, dated 2017)

Molecular target: Human thrombin (Homo sapiens (Human), UniProt P00734)
Assay: Thrombin protease activity inhibition assay (chromogenic substrate S-2238)
Assay type: biochemical
Conditions: 3 nM thrombin, 125 μM S-2238, 10 min pre-incubation, RT
How it was run: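 Thrombin at 3 nM final in 0.05 M Tris pH 7.4, 0.015 M NaCl, 0.01% PEG-8000, at room temperature; compounds as ten-point three-fold dilutions.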

Row | SMILES | IC50
1 | CC(C)(C)C(=O)n1nc(-c2cccn(Cc3ccc(Cl)s3)c2=O)cc1NCc1ccc(Cl)s1 [Cmpd 39, 1-[(5-chlorothiophen-2-yl)methyl]-3-(5-[(5-chlorothiophen-2-yl)methyl]amino-1-(2,2-dimethylpropanoyl)-1H-pyrazol-3-yl)-1,2-dihydropyridin-2-one] | < 100 nM
2 | COc1ccccc1C(=O)n1nc(-c2cccn(Cc3ccccc3Cl)c2=O)cc1NCc1ccc(Cl)s1 [Cmpd 28, 1-[(2-chlorophenyl)methyl]-3-(5-[(5-chlorothiophen-2-yl)methyl]amino-1-[(2-methoxyphenyl)carbonyl]-1H-pyrazol-3-yl)-1,2-dihydropyridin-2-one] | < 100 nM
3 | O=C(c1ccccc1)n1nc(-c2cccn(Cc3ccco3)c2=O)cc1NCc1ccc(Cl)s1 [Cmpd 63, 3-(1-benzoyl-5-[(5-chlorothiophen-2-yl)methyl]amino-1H-pyrazol-3-yl)-1-(furan-2-ylmethyl)-1,2-dihydropyridin-2-one] | < 100 nM
4 | COc1ccccc1C(=O)n1nc(-c2cccn(Cc3ccc4ccccc4c3)c2=O)cc1NCc1ccc(Cl)s1 [Cmpd 137, 3-(5-[(5-chlorothiophen-2-yl)methyl]amino-1-[(2-methoxyphenyl)carbonyl]-1H-pyrazol-3-yl)-1-(naphthalen-2-ylmethyl)-1,2-dihydropyridin-2-one] | < 100 nM
5 | COc1ccccc1C(=O)n1nc(-c2cccn(Cc3ccc(Cl)cc3)c2=O)cc1NCc1ccc(Cl)s1 [Cmpd 36, 1-[(4-chlorophenyl)methyl]-3-(5-[(5-chlorothiophen-2-yl)methyl]amino-1-[(2-methoxyphenyl)carbonyl]-1H-pyrazol-3-yl)-1,2-dihydropyridin-2-one] | < 100 nM
6 | CC(C)(C)C(=O)n1nc(-c2cccn(Cc3ccccn3)c2=O)cc1NCc1ccc(Cl)s1 [Cmpd 82, 3-(5-[(5-chlorothiophen-2-yl)methyl]amino-1-(2,2-dimethylpropanoyl)-1H-pyrazol-3-yl)-1-(pyridin-2-ylmethyl)-1,2-dihydropyridin-2-one] | < 100 nM
7 | O=C(c1ccccc1)n1nc(-c2cccn(Cc3ccccn3)c2=O)cc1NCc1ccc(Cl)s1 [Cmpd 66, 3-(1-benzoyl-5-[(5-chlorothiophen-2-yl)methyl]amino-1H-pyrazol-3-yl)-1-(pyridin-2-ylmethyl)-1,2-dihydropyridin-2-one] | < 100 nM
8 | O=C(c1ccccc1Cl)n1nc(-c2cccn(Cc3ccccc3)c2=O)cc1NCc1ccc(Cl)s1 [Cmpd 55, 1-benzyl-3-1-[(2-chlorophenyl)carbonyl]-5-[(5-chlorothiophen-2-yl)methyl]amino-1H-pyrazol-3-yl-1,2-dihydropyridin-2-one] | < 100 nM
9 | O=C(c1cccc2c1OCCO2)n1nc(-c2cccn(CCN3CCOCC3)c2=O)cc1NCc1ccc(Cl)s1 [Cmpd 119, 3-(5-[(5-chlorothiophen-2-yl)methyl]amino-1-[(2,3-dihydro-1,4-benzodioxin-5-yl)carbonyl]-1H-pyrazol-3-yl)-1-[2-(morpholin-4-yl)ethyl]-1,2-dihydropyridin-2-one] | < 100 nM
10 | N#CCn1cccc(-c2cc(NCc3ccc(Cl)s3)n(C(=O)c3ccoc3)n2)c1=O [Cmpd 58, 2-[3-(5-[(5-chlorothiophen-2-yl)methyl]amino-1-[(furan-3-yl)carbonyl]-1H-pyrazol-3-yl)-2-oxo-1,2-dihydropyridin-1-yl]acetonitrile] | < 100 nM
11 | O=C(c1ccoc1)n1nc(-c2cccn(Cc3ccncc3)c2=O)cc1NCc1ccc(Cl)s1 [Cmpd 6, 3-(5-[(5-chlorothiophen-2-yl)methyl]amino-1-[(furan-3-yl)carbonyl]-1H-pyrazol-3-yl)-1-(pyridin-4-ylmethyl)-1,2-dihydropyridin-2-one] | < 100 nM
12 | COc1ccc(C(=O)n2nc(-c3cccn(Cc4cccs4)c3=O)cc2NCc2ccc(Cl)s2)c(OC)c1 [Cmpd 129, 3-(5-[(5-chlorothiophen-2-yl)methyl]amino-1-[(2,4-dimethoxyphenyl)carbonyl]-1H-pyrazol-3-yl)-1-(thiophen-2-ylmethyl)-1,2-dihydropyridin-2-one] | < 100 nM
13 | O=C(c1ccccc1)n1nc(-c2cccn(Cc3ccccc3)c2=O)cc1NCc1ccc(Cl)s1 [Cmpd 72, 3-(1-benzoyl-5-[(5-chlorothiophen-2-yl)methyl]amino-1H-pyrazol-3-yl)-1-benzyl-1,2-dihydropyridin-2-one] | < 100 nM
14 | CC(C)(C)C(=O)n1nc(-c2cccn(Cc3cccnc3)c2=O)cc1NCc1ccc(Cl)s1 [Cmpd 83, 3-(5-[(5-chlorothiophen-2-yl)methyl]amino-1-(2,2-dimethylpropanoyl)-1H-pyrazol-3-yl)-1-(pyridin-3-ylmethyl)-1,2-dihydropyridin-2-one] | < 100 nM

Further lines, results first:

Row | IC50 | SMILES
15 | 10000 to 100000 nM | O=c1c(-c2cc(NCc3ccc(Cl)s3)[nH]n2)cccn1CCc1ccccc1 [Cmpd 221, 3-(5-[(5-chlorothiophen-2-yl)methyl]amino-1H-pyrazol-3-yl)-1-(2-phenylethyl)-1,2-dihydropyridin-2-one]
16 | < 100 nM | O=C(c1ccco1)n1nc(-c2cccn(Cc3ncccn3)c2=O)cc1NCc1ccc(Cl)s1 [Cmpd 167, 3-(5-[(5-chlorothiophen-2-yl)methyl]amino-1-[(furan-2-yl)carbonyl]-1H-pyrazol-3-yl)-1-(pyrimidin-2-ylmethyl)-1,2-dihydropyridin-2-one]
17 | < 100 nM | Nc1ccccc1C(=O)n1nc(-c2ccc[nH]c2=O)cc1NCc1ccc(Cl)s1 [Cmpd 241, 3-1-[(2-aminophenyl)carbonyl]-5-[(5-chlorothiophen-2-yl)methyl]amino-1H-pyrazol-3-yl-1,2-dihydropyridin-2-one]
18 | < 100 nM | CC1(C(=O)n2nc(-c3cccn(Cc4ncccn4)c3=O)cc2NCc2ccc(Cl)s2)CCOCC1 [Cmpd 156, 3-(5-[(5-chlorothiophen-2-yl)methyl]amino-1-[(4-methyloxan-4-yl)carbonyl]-1H-pyrazol-3-yl)-1-(pyrimidin-2-ylmethyl)-1,2-dihydropyridin-2-one]
19 | < 100 nM | O=C(c1ccoc1)n1nc(-c2cccn(Cc3ccoc3)c2=O)cc1NCc1ccc(Cl)s1 [Cmpd 173, 3-(5-[(5-chlorothiophen-2-yl)methyl]amino-1-[(furan-3-yl)carbonyl]-1H-pyrazol-3-yl)-1-(furan-3-ylmethyl)-1,2-dihydropyridin-2-one]
20 | < 100 nM | O=C(c1ccc(N2CCOCC2)cc1)n1nc(-c2cccn(Cc3ccccn3)c2=O)cc1NCc1ccc(Cl)s1 [Cmpd 212, 3-(5-[(5-chlorothiophen-2-yl)methyl]amino-1-[4-(morpholin-4-yl)phenyl]carbonyl-1H-pyrazol-3-yl)-1-(pyridin-2-ylmethyl)-1,2-dihydropyridin-2-one]
21 | < 100 nM | CC1(C(=O)n2nc(-c3cccn(Cc4cccnc4)c3=O)cc2NCc2ccc(Cl)s2)CCOCC1 [Cmpd 154, 3-(5-[(5-chlorothiophen-2-yl)methyl]amino-1-[(4-methyloxan-4-yl)carbonyl]-1H-pyrazol-3-yl)-1-(pyridin-3-ylmethyl)-1,2-dihydropyridin-2-one]
22 | < 100 nM | O=C(c1cccs1)n1nc(-c2cccn(Cc3ccncc3)c2=O)cc1NCc1ccc(Cl)s1 [Cmpd 188, 3-(5-[(5-chlorothiophen-2-yl)methyl]amino-1-[(thiophen-2-yl)carbonyl]-1H-pyrazol-3-yl)-1-(pyridin-4-ylmethyl)-1,2-dihydropyridin-2-one]
23 | < 100 nM | CC(C)(C)c1ccc(C(=O)n2nc(-c3ccc[nH]c3=O)cc2NCc2ccc(Cl)s2)cc1 [Cmpd 253, 3-1-[(4-tert-butylphenyl)carbonyl]-5-[(5-chlorothiophen-2-yl)methyl]amino-1H-pyrazol-3-yl-1,2-dihydropyridin-2-one]
24 | < 100 nM | O=C(c1ccccc1Cl)n1nc(-c2cccn(CCN3CCOCC3)c2=O)cc1NCc1ccc(Cl)s1 [Cmpd 252, 3-1-[(2-chlorophenyl)carbonyl]-5-[(5-chlorothiophen-2-yl)methyl]amino-1H-pyrazol-3-yl-1-[2-(morpholin-4-yl)ethyl]-1,2-dihydropyridin-2-one]
25 | < 100 nM | O=C(c1ccco1)n1nc(-c2cccn(Cc3ccncc3)c2=O)cc1NCc1ccc(Cl)s1 [Cmpd 166, 3-(5-[(5-chlorothiophen-2-yl)methyl]amino-1-[(furan-2-yl)carbonyl]-1H-pyrazol-3-yl)-1-(pyridin-4-ylmethyl)-1,2-dihydropyridin-2-one]
26 | < 100 nM | CC1(C(=O)n2nc(-c3cccn(Cc4ccccn4)c3=O)cc2NCc2ccc(Cl)s2)CCOCC1 [Cmpd 153, 3-(5-[(5-chlorothiophen-2-yl)methyl]amino-1-[(4-methyloxan-4-yl)carbonyl]-1H-pyrazol-3-yl)-1-(pyridin-2-ylmethyl)-1,2-dihydropyridin-2-one]
27 | < 100 nM | COc1ccccc1C(=O)n1nc(-c2cccn(CCN3CCOCC3)c2=O)cc1NCc1ccc(Cl)s1 [Cmpd 146, 3-(5-[(5-chlorothiophen-2-yl)methyl]amino-1-[(2-methoxyphenyl)carbonyl]-1H-pyrazol-3-yl)-1-[2-(morpholin-4-yl)ethyl]-1,2-dihydropyridin-2-one]
28 | < 100 nM | O=C(c1cccs1)n1nc(-c2cccn(Cc3ncccn3)c2=O)cc1NCc1ccc(Cl)s1 [Cmpd 189, 3-(5-[(5-chlorothiophen-2-yl)methyl]amino-1-[(thiophen-2-yl)carbonyl]-1H-pyrazol-3-yl)-1-(pyrimidin-2-ylmethyl)-1,2-dihydropyridin-2-one]
29 | > 100000 nM | O=C(c1ccsc1)n1nc(-c2cccn(Cc3cccnc3)c2=O)cc1NCc1ccc(Cl)s1 [Cmpd 199, 3-(5-[(5-chlorothiophen-2-yl)methyl]amino-1-[(thiophen-3-yl)carbonyl]-1H-pyrazol-3-yl)-1-(pyridin-3-ylmethyl)-1,2-dihydropyridin-2-one]
30 | < 100 nM | COc1ccccc1C(=O)n1nc(-c2cccn(CC(=O)OC(C)(C)C)c2=O)cc1NCc1ccc(Cl)s1 [Cmpd 262, tert-butyl 2-[3-(5-[(5-chlorothiophen-2-yl)methyl]amino-1-[(2-methoxyphenyl)carbonyl]-1H-pyrazol-3-yl)-2-oxo-1,2-dihydropyridin-1-yl]acetate]
